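Test compounds were applied to cells in 96-well plates for 48 hours at 5 doses. Definition used: TGI = concentration required for complete inhibition of growth.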
Legend:
Assay in all cases: inhibition of tumour cell growth, NCI panel, 48 h
[1] = tested on: SR leukemia
[2] = tested on: M14 melanoma
[3] = tested on: SW-620 colon
[4] = tested on: SK-MEL-2 melanoma
[5] = tested on: SF-539 CNS
[6] = tested on: NCI/ADR-RES ovarian
[7] = tested on: TK-10 renal
[8] = tested on: SK-MEL-28 melanoma
[9] = tested on: MDA-N
[10] = tested on: SK-MEL-5 melanoma
[11] = tested on: K-562 leukemia
[12] = tested on: NCI-H23 lung
[13] = tested on: RXF 393 renal
[14] = tested on: UO-31 renal
[15] = tested on: NCI-H522 lung
[16] = tested on: A549 NSCLC
[17] = tested on: EKVX NSCLC
[18] = tested on: UACC-257 melanoma
[19] = tested on: UACC-62 melanoma
[20] = tested on: OVCAR-4 ovarian
[21] = tested on: CCRF-CEM leukemia
[22] = tested on: KM12 colon
[23] = tested on: RPMI-8226 leukemia
[24] = tested on: SF-295 CNS
[25] = tested on: NCI-H460 lung
[26] = tested on: 786-0 renal
[27] = tested on: U251 CNS
[28] = tested on: SK-OV-3 ovarian
[29] = tested on: BT-549 breast
[30] = tested on: SNB-19 CNS
[31] = tested on: MDA-MB-231 breast
[32] = tested on: ACHN renal
[33] = tested on: HT29 colon
[34] = tested on: SF-268 CNS
[35] = tested on: HL-60(TB) leukemia
[36] = tested on: A498 renal
[37] = tested on: OVCAR-5 ovarian
[38] = tested on: HCC-2998 colon
[39] = tested on: HCT-15 colon
[40] = tested on: HOP-62 NSCLC
[41] = tested on: SNB-75 CNS
[42] = tested on: COLO 205 colon
[43] = tested on: DU-145 prostate
[44] = tested on: MDA-MB-435
[45] = tested on: SN12C renal
[46] = tested on: MOLT-4 leukemia
[47] = tested on: PC-3 prostate
[48] = tested on: NCI-H226 lung
[49] = tested on: OVCAR-3 ovarian
[50] = tested on: HCT-116 colon
[51] = tested on: CAKI-1 renal
[52] = tested on: OVCAR-8 ovarian
[53] = tested on: MCF7 breast
[54] = tested on: HS 578T breast
[55] = tested on: IGROV1 ovarian
[56] = tested on: HOP-92 NSCLC
[57] = tested on: MALME-3M melanoma
[58] = tested on: LOX IMVI melanoma
[59] = tested on: T-47D breast

`CSc1nncc(-c2cc3c(c(SC)n2)CCCC3)n1` showed a TGI [1] of over 100 µM, a TGI [2] of over 100 µM and a TGI [3] of over 100 µM. The TGI [4] was over 100 µM, the TGI [5] was over 100 µM and the TGI [6] was over 100 µM. It also gave a TGI [7] of over 100 µM, a TGI [8] of over 100 µM and a TGI [9] of over 100 µM. It also gave a TGI [10] of over 100 µM, a TGI [11] of over 100 µM and a TGI [12] of over 100 µM. The TGI [13] was over 100 µM, the TGI [14] was over 100 µM and the TGI [15] was over 100 µM. For the same compound, the TGI [16] was over 100 µM, the TGI [17] was over 100 µM and the TGI [18] was over 100 µM. It also gave a TGI [19] of over 100 µM, a TGI [20] of over 100 µM and a TGI [21] of over 100 µM. It also gave a TGI [22] of over 100 µM, a TGI [23] of over 100 µM and a TGI [24] of over 100 µM. The TGI [25] was over 100 µM, the TGI [26] was over 100 µM and the TGI [27] was over 100 µM. It also gave a TGI [28] of over 100 µM, a TGI [29] of over 100 µM and a TGI [30] of over 100 µM. The TGI [31] was over 100 µM, the TGI [32] was over 100 µM and the TGI [33] was over 100 µM. For the same compound, the TGI [34] was over 100 µM, the TGI [35] was over 100 µM and the TGI [36] was over 100 µM. The TGI [37] was over 100 µM, the TGI [38] was over 100 µM and the TGI [39] was over 100 µM. It also gave a TGI [40] of over 100 µM, a TGI [41] of over 100 µM and a TGI [42] of over 100 µM. It also gave a TGI [43] of over 100 µM, a TGI [44] of over 100 µM and a TGI [45] of over 100 µM. The TGI [46] was over 100 µM, the TGI [47] was over 100 µM and the TGI [48] was over 100 µM. It also gave a TGI [49] of over 100 µM, a TGI [50] of over 100 µM and a TGI [51] of over 100 µM. It also gave a TGI [52] of over 100 µM.

Work on `O=C(NCCC1CNc2ccccc21)OCc1ccccc1` (stereo not drawn) yielded a TGI [1] of over 100 µM, a TGI [53] of over 100 µM and a TGI [2] of over 100 µM. For the same compound, the TGI [3] was over 100 µM, the TGI [4] was over 100 µM and the TGI [6] was over 100 µM. For the same compound, the TGI [8] was over 100 µM, the TGI [54] was over 100 µM and the TGI [9] was over 100 µM. The TGI [10] was over 100 µM, the TGI [11] was over 100 µM and the TGI [12] was over 100 µM. For the same compound, the TGI [13] was over 100 µM, the TGI [14] was over 100 µM and the TGI [15] was over 100 µM. The TGI [16] was over 100 µM, the TGI [17] was over 100 µM and the TGI [18] was over 100 µM. For the same compound, the TGI [19] was over 100 µM, the TGI [20] was over 100 µM and the TGI [21] was over 100 µM. The TGI [22] was over 100 µM, the TGI [23] was over 100 µM and the TGI [55] was over 100 µM. It also gave a TGI [24] of over 100 µM, a TGI [25] of over 100 µM and a TGI [26] of over 100 µM. For the same compound, the TGI [27] was over 100 µM, the TGI [28] was over 100 µM and the TGI [29] was over 100 µM. It also gave a TGI [30] of over 100 µM, a TGI [31] of over 100 µM and a TGI [32] of over 100 µM. The TGI [33] was over 100 µM, the TGI [34] was over 100 µM and the TGI [56] was over 100 µM. The TGI [36] was over 100 µM, the TGI [37] was over 100 µM and the TGI [38] was over 100 µM. For the same compound, the TGI [39] was over 100 µM, the TGI [40] was over 100 µM and the TGI [42] was over 100 µM. For the same compound, the TGI [43] was over 100 µM, the TGI [44] was over 100 µM and the TGI [46] was over 100 µM. The TGI [47] was over 100 µM, the TGI [49] was over 100 µM and the TGI [50] was over 100 µM. It also gave a TGI [51] of over 100 µM, a TGI [57] of over 100 µM and a TGI [52] of over 100 µM.

`O=c1c(-c2ccccc2)nnc2n(Cc3ccccc3)c3ccccc3n12` was tested, and the TGI [1] was over 100 µM, the TGI [53] was over 100 µM and the TGI [2] was over 100 µM. The TGI [3] was over 100 µM, the TGI [4] was over 100 µM and the TGI [5] was over 100 µM. The TGI [6] was over 100 µM, the TGI [7] was over 100 µM and the TGI [8] was over 100 µM. For the same compound, the TGI [54] was over 100 µM, the TGI [9] was over 100 µM and the TGI [10] was over 100 µM. It also gave a TGI [12] of over 100 µM, a TGI [13] of over 100 µM and a TGI [14] of over 100 µM. The TGI [15] was over 100 µM, the TGI [16] was over 100 µM and the TGI [17] was over 100 µM. The TGI [18] was over 100 µM, the TGI [20] was over 100 µM and the TGI [21] was over 100 µM. The TGI [22] was over 100 µM, the TGI [55] was over 100 µM and the TGI [24] was over 100 µM. The TGI [25] was over 100 µM, the TGI [26] was over 100 µM and the TGI [27] was over 100 µM. The TGI [29] was over 100 µM, the TGI [30] was over 100 µM and the TGI [31] was over 100 µM. It also gave a TGI [32] of over 100 µM, a TGI [33] of over 100 µM and a TGI [34] of over 100 µM. For the same compound, the TGI [35] was over 100 µM, the TGI [56] was over 100 µM and the TGI [36] was over 100 µM. For the same compound, the TGI [37] was over 100 µM, the TGI [38] was over 100 µM and the TGI [58] was over 100 µM. For the same compound, the TGI [39] was over 100 µM, the TGI [41] was over 100 µM and the TGI [42] was over 100 µM. The TGI [43] was over 100 µM, the TGI [59] was over 100 µM and the TGI [44] was over 100 µM. For the same compound, the TGI [45] was over 100 µM, the TGI [46] was over 100 µM and the TGI [48] was over 100 µM. The TGI [50] was over 100 µM, the TGI [51] was over 100 µM and the TGI [57] was over 100 µM. It also gave a TGI [52] of over 100 µM.

Compound `Cc1ccc(S(=O)(=O)OC2CC(C(C)(C)C)CCC2c2ccccc2)cc1` (stereo not drawn) has a TGI [1] of over 100 µM, a TGI [53] of over 100 µM and a TGI [2] of over 100 µM. The TGI [3] was over 100 µM, the TGI [4] was over 100 µM and the TGI [5] was over 100 µM. The TGI [6] was over 100 µM, the TGI [7] was over 100 µM and the TGI [8] was over 100 µM. The TGI [9] was over 100 µM, the TGI [10] was over 100 µM and the TGI [11] was over 100 µM. The TGI [12] was over 100 µM, the TGI [13] was over 100 µM and the TGI [14] was over 100 µM. It also gave a TGI [16] of over 100 µM, a TGI [17] of over 100 µM and a TGI [18] of over 100 µM. It also gave a TGI [19] of over 100 µM, a TGI [20] of over 100 µM and a TGI [22] of over 100 µM. It also gave a TGI [23] of over 100 µM, a TGI [55] of over 100 µM and a TGI [24] of over 100 µM. For the same compound, the TGI [25] was over 100 µM, the TGI [26] was over 100 µM and the TGI [27] was over 100 µM. The TGI [28] was over 100 µM, the TGI [29] was over 100 µM and the TGI [30] was over 100 µM. The TGI [31] was over 100 µM, the TGI [32] was over 100 µM and the TGI [33] was over 100 µM. The TGI [35] was over 100 µM, the TGI [56] was over 100 µM and the TGI [36] was over 100 µM. The TGI [37] was over 100 µM, the TGI [58] was over 100 µM and the TGI [39] was over 100 µM. It also gave a TGI [40] of over 100 µM, a TGI [41] of 68 µM and a TGI [42] of over 100 µM. For the same compound, the TGI [43] was over 100 µM, the TGI [59] was over 100 µM and the TGI [44] was over 100 µM. For the same compound, the TGI [45] was over 100 µM, the TGI [46] was over 100 µM and the TGI [47] was over 100 µM. For the same compound, the TGI [48] was over 100 µM, the TGI [49] was over 100 µM and the TGI [50] was over 100 µM. For the same compound, the TGI [51] was over 100 µM and the TGI [52] was over 100 µM.

Source: PubChem BioAssay (NCI)
